From patent US20120101032A1, “NOVEL MACROCYCLIC INHIBITORS OF HEPATITIS C VIRUS REPLICATION” (priority 2010, published 2012)
Like-named read-outs stand apart in the source and are kept apart here.

Key:
hepatitis C replicon = hepatitis C replicon EC50 assay; format: cell-based; conditions: Hepatitis C virus
Description: NS3-NS4 inhibition activity can be determined using known assay methods.

NS3/NS4 complexes = NS3/NS4 complexes (Hepatitis C virus genotype 1a, UniProt P27958); test: biochemical; conditions: NS3-NS4 activity; 23° C., pH 7.5, 25 μM NS4A peptide; read-out: IC50
Description: NS3-NS4 inhibition activity can be determined using known assay methods. For example, NS3/NS4 complexes may be formed and inhibitory concentrations of test compounds determined as described in U.S. Patent Application Publication Number 2007/0054842 paragraph numbers 1497-1509, which is incorporated herein by reference in its entirety. Similarly, hepatitis C replicon EC50 may be determined using known assay methods such as described in U.S. Patent Application Publication Number 2007/0054842 paragraph numbers 1510-1515, which is incorporated herein by reference in its entirety. Assays may be conducted at ambient temperature (23° C.) in assay buffer containing 50 mM Tris-HCl, pH 7.5, 15% glycerol, 0.6 mM Lauryldimethylamine Oxide (LDAO), 25 μM NS4A peptide, and 10 mM Dithiothreitol (DTT).

[1] = hepatitis C replicon, read-out: EC50

NS3/NS4 complexes, sequence (P27958 1027-1657, one chain of several): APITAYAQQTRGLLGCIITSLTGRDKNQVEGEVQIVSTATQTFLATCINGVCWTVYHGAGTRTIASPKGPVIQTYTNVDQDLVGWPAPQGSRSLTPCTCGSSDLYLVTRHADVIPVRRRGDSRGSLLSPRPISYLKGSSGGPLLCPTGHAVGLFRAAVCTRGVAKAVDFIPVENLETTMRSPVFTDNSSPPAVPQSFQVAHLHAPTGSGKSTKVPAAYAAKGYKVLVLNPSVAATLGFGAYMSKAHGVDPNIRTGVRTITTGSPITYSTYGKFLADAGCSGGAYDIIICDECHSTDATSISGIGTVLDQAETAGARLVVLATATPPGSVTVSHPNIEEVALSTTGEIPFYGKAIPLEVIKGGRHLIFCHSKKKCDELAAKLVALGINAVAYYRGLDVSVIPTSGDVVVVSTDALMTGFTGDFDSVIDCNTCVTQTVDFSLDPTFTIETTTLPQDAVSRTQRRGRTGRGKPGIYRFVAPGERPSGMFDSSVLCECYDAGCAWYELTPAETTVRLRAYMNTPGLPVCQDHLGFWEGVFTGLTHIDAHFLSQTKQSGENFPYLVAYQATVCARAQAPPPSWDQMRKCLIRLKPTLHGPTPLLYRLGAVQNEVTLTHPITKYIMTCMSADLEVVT

SMILES	EC50 (hepatitis C replicon; [1])	IC50 (NS3/NS4 complexes)	EC50 (hepatitis C replicon)
CC(C)n1c(O[C@@H]2C[C@H]3C(=O)N[C@]4(C(=O)NS(=O)(=O)N(C)C)C[C@H]4/C=C\CCCCC[C@H](NC(=O)OC(C)(C)C)C(=O)N3C2)nc2c(-c3nc(-c4ccc(Cl)c(Cl)c4)cs3)cccc21 [Compound 138]	> 100 nM	< 10 nM	–
CC(C)(C)OC(=O)N[C@H]1CCCCC/C=C\[C@@H]2C[C@@]2(C(=O)NS(=O)(=O)C2(C)CC2)NC(=O)[C@@H]2C[C@@H](Oc3nc(-c4ccccc4)nc4c3CCCC4)CN2C1=O [Compound 302]	< 10 nM	< 10 nM	–
CC(C)n1c(O[C@@H]2C[C@H]3C(=O)N[C@]4(C(=O)NS(=O)(=O)C5CC5)C[C@H]4/C=C\CCCCC[C@H](NC(=O)OC(C)(C)C)C(=O)N3C2)nc2c(-c3nc(C4CCCCC4)cs3)cccc21 [Compound 172]	< 10 nM	< 10 nM	–
CC(C)n1c(O[C@@H]2C[C@H]3C(=O)N[C@]4(C(=O)NS(=O)(=O)C5(C)CC5)C[C@H]4/C=C\CCCCC[C@H](N)C(=O)N3C2)nc2c(-c3csc(N4CCCCC4)n3)cccc21 [Compound 170]	–	< 10 nM	10 to 100 nM
CC(C)n1c(O[C@@H]2C[C@H]3C(=O)N[C@]4(C(=O)NS(=O)(=O)C5(C)CC5)C[C@H]4/C=C\CCCCC[C@H](NC(=O)OC(C)(C)C)C(=O)N3C2)nc2c(-c3nc(C4CCCCC4)cs3)cccc21 [Compound 179]	–	< 10 nM	< 10 nM
CC(C)n1c(O[C@@H]2C[C@H]3C(=O)N[C@]4(C(=O)NS(=O)(=O)C5(C)CC5)C[C@H]4/C=C\CCCCC[C@H](NC(=O)OC(C)(C)C)C(=O)N3C2)nc2c(-c3nc(-c4ccc5c(c4)OCCO5)cs3)cccc21 [Compound 112]	< 10 nM	< 10 nM	–
CC(C)c1ccc(Cc2csc(-c3cccc4c3nc(O[C@@H]3C[C@H]5C(=O)N[C@]6(C(=O)NS(=O)(=O)C7(C)CC7)C[C@H]6/C=C\CCCCC[C@H](NC(=O)OC(C)(C)C)C(=O)N5C3)n4C(C)C)n2)cc1 [Compound 116]	10 to 100 nM	< 10 nM	–
COc1ccc2c(O[C@@H]3C[C@H]4C(=O)N[C@]5(C(=O)NS(=O)(=O)C6(C)CC6)C[C@H]5/C=C\CCCCC[C@H](NC(=O)OC(C)(C)C)C(=O)N4C3)cc(C(C)C)nc2c1C [Compound 501]	< 10 nM	< 10 nM	–
Cc1ccccc1Cc1csc(-c2cccc3c2nc(O[C@@H]2C[C@H]4C(=O)N[C@]5(C(=O)NS(=O)(=O)C6(C)CC6)C[C@H]5/C=C\CCCCC[C@H](NC(=O)OC(C)(C)C)C(=O)N4C2)n3C(C)C)n1 [Compound 114]	< 10 nM	< 10 nM	–
CC(C)n1c(O[C@@H]2C[C@H]3C(=O)N[C@]4(C(=O)NS(=O)(=O)N(C)C)C[C@H]4/C=C\CCCCC[C@H](NC(=O)OC(C)(C)C)C(=O)N3C2)nc2c(-c3nc(-c4ccc(Br)cc4)cs3)cccc21 [Compound 137]	> 100 nM	< 10 nM	–
COc1ccccc1-c1csc(-c2cccc3c2nc(O[C@@H]2C[C@H]4C(=O)N[C@]5(C(=O)NS(=O)(=O)N(C)C)C[C@H]5/C=C\CCCCC[C@H](NC(=O)OC(C)(C)C)C(=O)N4C2)n3C(C)C)n1 [Compound 131]	10 to 100 nM	< 10 nM	–
COc1cccc(-c2csc(-c3cccc4c3nc(O[C@@H]3C[C@H]5C(=O)N[C@]6(C(=O)NS(=O)(=O)N(C)C)C[C@H]6/C=C\CCCCC[C@H](NC(=O)OC(C)(C)C)C(=O)N5C3)n4C(C)C)n2)c1 [Compound 132]	10 to 100 nM	< 10 nM	–
Cc1ccc(Cc2csc(-c3cccc4c3nc(O[C@@H]3C[C@H]5C(=O)N[C@]6(C(=O)NS(=O)(=O)N(C)C)C[C@H]6/C=C\CCCCC[C@H](NC(=O)OC(C)(C)C)C(=O)N5C3)n4C(C)C)n2)cc1 [Compound 146]	< 10 nM	< 10 nM	–
CC(C)n1c(O[C@@H]2C[C@H]3C(=O)N[C@]4(C(=O)NS(=O)(=O)N(C)C)C[C@H]4/C=C\CCCCC[C@H](NC(=O)OC(C)(C)C)C(=O)N3C2)nc2c(-c3cnccn3)cccc21 [Compound 159]	< 10 nM	< 10 nM	–
CC(C)n1c(O[C@@H]2C[C@H]3C(=O)N[C@]4(C(=O)NS(=O)(=O)C5(C)CC5)C[C@H]4/C=C\CCCCC[C@H](NC(=O)OC(C)(C)C)C(=O)N3C2)nc2c(-c3cnccn3)cccc21 [Compound 126]	< 10 nM	< 10 nM	–
CC(C)n1c(O[C@@H]2C[C@H]3C(=O)N[C@]4(C(=O)NS(=O)(=O)C5(C)CC5)C[C@H]4/C=C\CCCCC[C@H](NC(=O)OC(C)(C)C)C(=O)N3C2)nc2c(-c3nc(Cc4cccc(Br)c4)cs3)cccc21 [Compound 117]	10 to 100 nM	< 10 nM	–
CC(C)c1csc(-c2cc(O[C@@H]3C[C@H]4C(=O)N[C@]5(C(=O)NS(=O)(=O)C6(C)CC6)C[C@H]5/C=C\CCCCC[C@H](NC(=O)OC(C)(C)C)C(=O)N4C3)ccn2)n1 [Compound 601]	< 10 nM	< 10 nM	–

SMILES	EC50 (hepatitis C replicon; [1])	IC50 (NS3/NS4 complexes)	EC50 (hepatitis C replicon)
CC(C)(C)OC(=O)N[C@H]1CCCCC/C=C\[C@@H]2C[C@@]2(C(=O)NS(=O)(=O)C2(C)CC2)NC(=O)[C@@H]2C[C@@H](Oc3nc4c(-c5nc(C6CCCCC6)cs5)cccc4nc3C(F)(F)F)CN2C1=O [Compound 702]	< 10 nM	< 10 nM	–
CC(C)n1c(O[C@@H]2C[C@H]3C(=O)N[C@]4(C(=O)NS(=O)(=O)C5(C)CC5)C[C@H]4/C=C\CCCCC[C@H](NC(=O)OC(C)(C)C)C(=O)N3C2)nc2c(-c3csc(N4CCN(C)CC4)n3)cccc21 [Compound 127]	< 10 nM	< 10 nM	–
CC(C)n1c(O[C@@H]2C[C@H]3C(=O)N[C@]4(C(=O)NS(=O)(=O)N(C)C)C[C@H]4/C=C\CCCCC[C@H](NC(=O)OC(C)(C)C)C(=O)N3C2)nc2c(-c3csc(N4CCN(C)CC4)n3)cccc21 [Compound 160]	< 10 nM	< 10 nM	–
CC(C)n1c(O[C@@H]2C[C@H]3C(=O)N[C@]4(C(=O)NS(=O)(=O)C5(C)CC5)C[C@H]4/C=C\CCCCC[C@H](NC(=O)OC(C)(C)C)C(=O)N3C2)nc2c(-c3nc(Cc4ccc(OC(F)(F)F)cc4)cs3)cccc21 [Compound 121]	10 to 100 nM	< 10 nM	–
CC(C)n1c(O[C@@H]2C[C@H]3C(=O)N[C@]4(C(=O)NS(=O)(=O)N(C)C)C[C@H]4/C=C\CCCCC[C@H](NC(=O)OC(C)(C)C)C(=O)N3C2)nc2c(-c3csc(N4CCCC4)n3)cccc21 [Compound 158]	< 10 nM	< 10 nM	–
COc1ccc2c(O[C@@H]3C[C@H]4C(=O)N[C@]5(C(=O)NS(=O)(=O)C6(C)CC6)C[C@H]5/C=C\CCCCC[C@H](N)C(=O)N4C3)cc(C(C)C)nc2c1C [Compound 502]	> 100 nM	< 10 nM	–
CC(C)n1c(O[C@@H]2C[C@H]3C(=O)N[C@]4(C(=O)NS(=O)(=O)C5(C)CC5)C[C@H]4/C=C\CCCCC[C@H](NC(=O)OC(C)(C)C)C(=O)N3C2)nc2c(-c3cncc(N4CCCC4)n3)cccc21 [Compound 128]	< 10 nM	< 10 nM	–
CC(C)c1csc(-c2nc3c(c(O[C@@H]4C[C@H]5C(=O)N[C@]6(C(=O)NS(=O)(=O)C7(C)CC7)C[C@H]6/C=C\CCCCC[C@H](NC(=O)OC(C)(C)C)C(=O)N5C4)n2)CCCC3)n1 [Compound 303]	–	10 to 100 nM	10 to 100 nM
CC(C)(C)OC(=O)N[C@H]1CCCCC/C=C\[C@@H]2C[C@@]2(C(=O)NS(=O)(=O)C2(C)CC2)NC(=O)[C@@H]2C[C@@H](Oc3cc(-c4ccccc4)nc4c3CCCC4)CN2C1=O [Compound 402]	–	< 10 nM	< 10 nM
CC(C)n1c(O[C@@H]2C[C@H]3C(=O)N[C@]4(C(=O)NS(=O)(=O)C5(C)CC5)C[C@H]4/C=C\CCCCC[C@H](NC(=O)OC(C)(C)C)C(=O)N3C2)nc2c(-c3nc(Cc4cccc(OC(F)(F)F)c4)cs3)cccc21 [Compound 120]	10 to 100 nM	< 10 nM	–
CC(C)n1c(O[C@@H]2C[C@H]3C(=O)N[C@]4(C(=O)NS(=O)(=O)C5(C)CC5)C[C@H]4/C=C\CCCCC[C@H](NC(=O)OC(C)(C)C)C(=O)N3C2)nc2c(-c3nc(C4CCN(C)CC4)cs3)cccc21 [Compound 183]	< 10 nM	< 10 nM	–
CC(C)(C)OC(=O)N[C@H]1CCCCC/C=C\[C@@H]2C[C@@]2(C(=O)NS(=O)(=O)C2(C)CC2)NC(=O)[C@@H]2C[C@@H](Oc3ccnc4c3CCCC4)CN2C1=O [Compound 403]	–	< 10 nM	10 to 100 nM
CC(C)(C)OC(=O)N[C@H]1CCCCC/C=C\[C@@H]2C[C@@]2(C(=O)NS(=O)(=O)C2(C)CC2)NC(=O)[C@@H]2C[C@@H](Oc3ncnc4c3CCCC4)CN2C1=O [Compound 301]	10 to 100 nM	< 10 nM	–
CC(C)c1csc(-c2nc3c(c(O[C@@H]4C[C@H]5C(=O)N[C@]6(C(=O)NS(=O)(=O)C7(C)CC7)C[C@H]6/C=C\CCCCC[C@H](N)C(=O)N5C4)n2)CCCC3)n1 [Compound 304]	–	10 to 100 nM	> 100 nM
CC(C)n1c(O[C@@H]2C[C@H]3C(=O)N[C@]4(C(=O)NS(=O)(=O)N(C)C)C[C@H]4/C=C\CCCCC[C@H](NC(=O)OC(C)(C)C)C(=O)N3C2)nc2c(-c3csc(-c4ccc(F)c(F)c4)n3)cccc21 [Compound 164]	> 100 nM	10 to 100 nM	–
CC(C)n1c(O[C@@H]2C[C@H]3C(=O)N[C@]4(C(=O)NS(=O)(=O)C5(C)CC5)C[C@H]4/C=C\CCCCC[C@H](N)C(=O)N3C2)nc2c(-c3nc(C4CCCCC4)cs3)cccc21 [Compound 178]	> 100 nM	< 10 nM	–
CC(C)n1c(O[C@@H]2C[C@H]3C(=O)N[C@]4(C(=O)NS(=O)(=O)C5(C)CC5)C[C@H]4/C=C\CCCCC[C@H](NC(=O)OC(C)(C)C)C(=O)N3C2)nc2c(-c3nc(Cc4ccc(Cl)cc4)cs3)cccc21 [Compound 122]	> 100 nM	< 10 nM	–
